Experimental data from ChEMBL document CHEMBL1201862, “PubChem BioAssay data set” (2004).
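Five compound concentrations were applied to cells in 96-well plates for 48 hours; endpoints were derived by simple linear interpolation of the resulting dose-response curve. GI50: concentration for 50% inhibition of growth.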 Activity calls are given as the source filed them. Cut-off read from the data, not from the text of the source: active = GI50 up to about 1.1 µM and inactive = higher.

Experiments:
Experiment in all cases: NCI tumour cell line growth inhibition, 48 h
[1] = test system: HOP-92
[2] = test system: SF-539
[3] = test system: SR
[4] = test system: SNB-19
[5] = test system: NCI-H23
[6] = test system: HOP-62
[7] = test system: U-251
[8] = test system: SK-MEL-28
[9] = test system: HT-29
[10] = test system: SF-295
[11] = test system: 786-0
[12] = test system: SF-268
[13] = test system: LOX IMVI
[14] = test system: HCT-15
[15] = test system: NCI/ADR-RES
[16] = test system: HCT-116
[17] = test system: HCC 2998
[18] = test system: T47D
[19] = test system: MOLT-4
[20] = test system: Malme-3M

Structure (SMILES) | GI50 [1] | GI50 [2] | GI50 [3] | GI50 [4] | GI50 [5] | GI50 [6] | GI50 [7] | GI50 [8] | GI50 [9] | GI50 [10] | GI50 [11] | GI50 [12] | GI50 [13] | GI50 [14] [µM] | GI50 [15] | GI50 [16] | GI50 [17] | GI50 [18] | GI50 [19] | GI50 [20]
Cc1cccc2c1C(=O)C1(Cc3ccccc3C1=O)C2 (stereo not given) | > 100 µM (inactive) | > 100 µM (inactive) | > 100 µM (inactive) | > 100 µM (inactive) | > 100 µM (inactive) | > 100 µM (inactive) | > 100 µM (inactive) | > 100 µM (inactive) | > 100 µM (inactive) | > 100 µM (inactive) | > 100 µM (inactive) | > 100 µM (inactive) | > 100 µM (inactive) | > 100 | 87.1 µM (inactive) | > 100 µM (inactive) | > 100 µM (inactive) | 52.8 µM (inactive) | 91.2 µM (inactive) | > 100 µM (inactive)
CC(C)(C)c1cc(C(P(=O)(c2ccccc2)c2ccccc2)P(=O)(c2ccccc2)c2ccccc2)cc(C(C)(C)C)c1O | 2.43 µM (inactive) | 2.25 µM (inactive) | 2.28 µM (inactive) | 3.44 µM (inactive) | 2.84 µM (inactive) | 2.56 µM (inactive) | 2.77 µM (inactive) | 1.95 µM (inactive) | 2.08 µM (inactive) | 1.92 µM (inactive) | 2.8 µM (inactive) | 2.93 µM (inactive) | 1.92 µM (inactive) | 2.96 | 2.12 µM (inactive) | 1.58 µM (inactive) | 1.72 µM (inactive) | 2.9 µM (inactive) | 2.88 µM (inactive) | 2.47 µM (inactive)
CC(=O)CCC[C@@H](C)[C@@H]1O[C@H]([C@@]2(C)CCC(=O)O2)C[C@H]2C(CSc3ccccc3)C(=O)O[C@@H]12 (stereo not given in full) | 16.3 µM (inactive) | 14.6 µM (inactive) | 6.79 µM (inactive) | 33.4 µM (inactive) | 17.9 µM (inactive) | 65.2 µM (inactive) | 16.9 µM (inactive) | 18.7 µM (inactive) | 17 µM (inactive) | 44.1 µM (inactive) | 12.9 µM (inactive) | 20 µM (inactive) | 12.4 µM (inactive) | 17.3 | 17.7 µM (inactive) | 15.6 µM (inactive) | 15.3 µM (inactive) | 17.9 µM (inactive) | 2.96 µM (inactive) | 8.09 µM (inactive)
O=c1[nH]c2cc(Cl)ccc2nc1/C(=N/Nc1ccccc1)C(O)c1ccco1 (stereo not given) | > 100 µM (inactive) | > 100 µM (inactive) | > 100 µM (inactive) | > 100 µM (inactive) | > 100 µM (inactive) | > 100 µM (inactive) | > 100 µM (inactive) | > 100 µM (inactive) | > 100 µM (inactive) | > 100 µM (inactive) | > 100 µM (inactive) | > 100 µM (inactive) | > 100 µM (inactive) | > 100 | > 100 µM (inactive) | > 100 µM (inactive) | > 100 µM (inactive) | > 100 µM (inactive) | > 100 µM (inactive) | > 100 µM (inactive)
CCOC(=O)C(NC(=O)CC(C)C)(Nc1ccc(S(=O)(=O)Nc2nc(C)cc(C)n2)cc1)C(F)(F)F (stereo not given) | > 100 µM (inactive) | > 100 µM (inactive) | > 100 µM (inactive) | > 100 µM (inactive) | > 100 µM (inactive) | > 100 µM (inactive) | > 100 µM (inactive) | > 100 µM (inactive) | > 100 µM (inactive) | > 100 µM (inactive) | > 100 µM (inactive) | > 100 µM (inactive) | > 100 µM (inactive) | > 100 | > 100 µM (inactive) | > 100 µM (inactive) | 7.87 µM (inactive) | > 100 µM (inactive) | > 100 µM (inactive) | > 100 µM (inactive)
Cn1ccnc1Sc1ccc(/C=N/NC(=O)c2ccccc2O)cc1[N+](=O)[O-] | > 100 µM (inactive) | 60.7 µM (inactive) | 2.27 µM (inactive) | > 100 µM (inactive) | 56.9 µM (inactive) | 73.6 µM (inactive) | 66.4 µM (inactive) | > 100 µM (inactive) | 33.7 µM (inactive) | > 100 µM (inactive) | 61.4 µM (inactive) | 48.8 µM (inactive) | 65.2 µM (inactive) | 39.6 | > 100 µM (inactive) | 70.1 µM (inactive) | 96.4 µM (inactive) | 80.2 µM (inactive) | 0.428 µM (active) | 40.9 µM (inactive)
O=C(O)CN(CC(=O)O)C1CCCCC1N1CC(=O)OC(=O)C1 (stereo not given) | > 100 µM (inactive) | > 100 µM (inactive) | 71.4 µM (inactive) | > 100 µM (inactive) | > 100 µM (inactive) | > 100 µM (inactive) | 43.4 µM (inactive) | > 100 µM (inactive) | 38.4 µM (inactive) | > 100 µM (inactive) | > 100 µM (inactive) | 61.7 µM (inactive) | > 100 µM (inactive) | 95.9 | > 100 µM (inactive) | > 100 µM (inactive) | 74.3 µM (inactive) | 51.3 µM (inactive) | > 100 µM (inactive) | 10.3 µM (inactive)
CC(C)(C)C1=CC(=CC=C2C=CN(CCCCCCCCCCCO)C=C2)C=C(C(C)(C)C)C1=O | 1.83 µM (inactive) | 2.07 µM (inactive) | 0.401 µM (active) | 1.58 µM (inactive) | 2.03 µM (inactive) | 1.74 µM (inactive) | 0.782 µM (active) | 1.78 µM (inactive) | 3.37 µM (inactive) | 1.38 µM (inactive) | 1.26 µM (inactive) | 1.57 µM (inactive) | 0.735 µM (active) | 2.6 | 2.96 µM (inactive) | 0.951 µM (active) | 0.838 µM (active) | 0.498 µM (active) | 1.32 µM (inactive) | 1.46 µM (inactive)
NC1=Nc2ccccc2Sc2nccn21 | 15.1 µM (inactive) | 23.9 µM (inactive) | 26.4 µM (inactive) | 40.3 µM (inactive) | 23.9 µM (inactive) | 24.4 µM (inactive) | 32.8 µM (inactive) | 35.8 µM (inactive) | 23 µM (inactive) | 22.3 µM (inactive) | 24.6 µM (inactive) | 30.2 µM (inactive) | 17.8 µM (inactive) | 25.2 | 30.5 µM (inactive) | 27.5 µM (inactive) | 21 µM (inactive) | 24.7 µM (inactive) | 20.2 µM (inactive) | 17.2 µM (inactive)
Cc1cnc2c(c1)C(=O)N(c1ccc([N+](=O)[O-])cc1)S2(=O)=O | > 100 µM (inactive) | 64.6 µM (inactive) | 25.7 µM (inactive) | 56.2 µM (inactive) | > 100 µM (inactive) | > 100 µM (inactive) | 67.1 µM (inactive) | 74 µM (inactive) | > 100 µM (inactive) | 82.8 µM (inactive) | > 100 µM (inactive) | 77.8 µM (inactive) | 73.5 µM (inactive) | 66.1 | 74.3 µM (inactive) | > 100 µM (inactive) | > 100 µM (inactive) | > 100 µM (inactive) | > 100 µM (inactive) | 22.4 µM (inactive)
C[n+]1cn(C2=C([N-]S(=O)(=O)c3ccccc3)C(=O)c3ccccc3C2=O)c2ccccc21 | 42.1 µM (inactive) | 31.4 µM (inactive) | 44.6 µM (inactive) | 19.3 µM (inactive) | 16 µM (inactive) | 47.9 µM (inactive) | 19.3 µM (inactive) | 36.1 µM (inactive) | 6.67 µM (inactive) | 61.4 µM (inactive) | 48.4 µM (inactive) | 31.6 µM (inactive) | 12.7 µM (inactive) | > 100 | > 100 µM (inactive) | 22.9 µM (inactive) | 18.9 µM (inactive) | 34.1 µM (inactive) | 23.2 µM (inactive) | 1.55 µM (inactive)
CCOC(=O)C(NNS(=O)(=O)c1ccc(C)cc1)S(=O)(=O)C(F)(F)C(F)(F)C(F)(F)C(F)(F)F (stereo not given) | 54.7 µM (inactive) | > 100 µM (inactive) | > 100 µM (inactive) | > 100 µM (inactive) | > 100 µM (inactive) | > 100 µM (inactive) | 88.9 µM (inactive) | > 100 µM (inactive) | > 100 µM (inactive) | 78.3 µM (inactive) | > 100 µM (inactive) | > 100 µM (inactive) | > 100 µM (inactive) | > 100 | > 100 µM (inactive) | 64 µM (inactive) | > 100 µM (inactive) | > 100 µM (inactive) | 81.8 µM (inactive) | > 100 µM (inactive)
CC1(C)OCC2OC3(c4nc(C#N)c(N)o4)OC(C)(C)OC3C2O1 (stereo not given) | > 100 µM (inactive) | > 100 µM (inactive) | > 100 µM (inactive) | > 100 µM (inactive) | > 100 µM (inactive) | > 100 µM (inactive) | > 100 µM (inactive) | > 100 µM (inactive) | > 100 µM (inactive) | > 100 µM (inactive) | > 100 µM (inactive) | > 100 µM (inactive) | > 100 µM (inactive) | > 100 | > 100 µM (inactive) | > 100 µM (inactive) | > 100 µM (inactive) | > 100 µM (inactive) | > 100 µM (inactive) | > 100 µM (inactive)
CCC(CCCC[C@H]1CC[C@@H]2CC(=O)C[C@H]12)OC (stereo not given in full) | > 100 µM (inactive) | > 100 µM (inactive) | 51.8 µM (inactive) | > 100 µM (inactive) | 35.2 µM (inactive) | > 100 µM (inactive) | > 100 µM (inactive) | > 100 µM (inactive) | > 100 µM (inactive) | > 100 µM (inactive) | > 100 µM (inactive) | > 100 µM (inactive) | > 100 µM (inactive) | > 100 | 66.5 µM (inactive) | 76 µM (inactive) | > 100 µM (inactive) | > 100 µM (inactive) | > 100 µM (inactive) | > 100 µM (inactive)
